# Experimental data published in US11596620B2, “Formulations with reduced oxidation” (Genentech, Inc., priority 2013, dated 2023).
# How the values were obtained:
# [1] = H2O2 generation by free L-Trp upon light exposure, Amplex assay; format: physicochemical
# Description: It was previously reported that L-Trp produced H2O2 via superoxide ion and in a sub-stoichiometric fashion while antibodies under similar conditions were producing catalytic amounts (Wentworth et al., Science 293(5536):1806-11 (2001); McCormick et al., Journal of the American Chemical Society 100:312-313 (1978)). To test the susceptibility of free L-Trp under pharmaceutically relevant conditions, such as under both ICH and ambient light conditions, formulations comprising 0.32 mM to 7.5 mM of L-Trp were exposed for 3 hours at 250 W/m^2 UV light and about 150 k lux visible light. Samples were taken and analyzed immediately via the Amplex assay to detect the amount of H2O2 generated under these conditions. […] When L-Trp was incubated with a combination of 50 mM NaN3 and 150 U superoxide dismutase (SOD) or SOD alone, significant amounts of H2O2 were still detected in the samples not containing NaN3.
# [2] = system: mAb1; test: Ambient light exposure of 50 mg/mL mAb1 formulations containing L-Trp (Amplex assay, RP-HPLC); format: physicochemical, human
# Excerpt: While confirming the photosensitivity of free L-Trp under ICH light conditions, the effect of ambient light that was typically seen in laboratories was studied. Measurements using a DLM1 digital light meter in various labs indicated an average of 300 lux on a lab benchtop (with white fluorescent lighting), an average of 3000 lux in a laminar flow hood (with white fluorescent lighting) and about 10000 lux for a windowsill exposed to southeast sunlight. […] Peroxide production increased with both luminosity (300, 3000, and 10000 lux) and time (1, 3, and 7 days). […] These levels of light exposure and time were determined to be pharmaceutically relevant for drug substance handling under ambient light and temperature before fill/finish operations and potentially while inspecting drug product vials.
compound,measurement,setting,value
"N[C@@H](Cc1c[nH]c2ccccc12)C(=O)O [L-Trp, L-tryptophan]",H2O2 generated upon light exposure,"[1]; 0.32 mM to 7.5 mM L-Trp, 3 hours at 250 W/m^2 UV light and about 150 k lux visible light",large quantity of H2O2
same,H2O2 generation in the presence of 50 mM sodium azide,"[1]; 3 hours at 250 W/m^2 UV light, 50 mM sodium azide",reduced greatly
same,"Heavy chain Fab oxidation (W53) under ambient light, in words","[2]; 50 mg/mL mAb1 with L-Trp, increasing luminosity",increased heavy chain Fab oxidation
same,% Fc oxidation in mAb1,"[2]; 300 lux, 50 mg/mL mAb1 with L-Trp",5%
same,% Fc oxidation in mAb1,"[2]; 10000 lux, 50 mg/mL mAb1 with L-Trp",40%
same,Hydrogen peroxide production under ambient light,"[2]; L-Trp in formulation buffers containing 50 mg/mL mAb1, 300, 3000, 10000 lux, 1, 3, 7 days",micromolar range
